pIC50: −log10 of the molar value. Calls of active or inactive are those of the source. No cut-off for these calls is given here. *1 amine or outer side, *2 acyl side, *3 side chain or, on linkers, in order; H or OH if unused. Where a SMILES comes first, the peptide text is derived from it. Side-chain parts run from the residue outwards. The star is where a group is joined. NH(CH2)3O(βDGlc) = OC[C@H]1O[C@@H](OCCCN*)[C@H](O)[C@@H](O)[C@@H]1O; Glutaryl = O=C(CCCC(=O)[*:2])[*:1]; Lauroyl = CCCCCCCCCCCC(=O)*
Tests used:
MCF7 = assay: Cytotoxicity against human MCF7 cells assessed as cell viability measured after 24 hrs by CCK-8 assay; format: functional, cell-based; details: MCF7, 24 h
MX1 = assay: Cytotoxicity against human MX1 cells assessed as cell viability measured after 24 hrs by CCK-8 assay; format: functional, cell-based; details: MX1, 24 h
MDA-MB-231 = assay: Cytotoxicity against human MDA-MB-231 cells assessed as cell viability measured after 24 hrs by CCK-8 assay; format: functional, cell-based; details: MDA-MB-231, 24 h
B16-F10 [1] = assay: Induction of GLUT1-mediated mouse B16-F10 cell cytotoxicity assessed as cell viability at 3.125 uM incubated for 24 hrs by CCK-8 assay
B16-F10 [2] = assay: Antitumor activity against mouse B16-F10 cells implanted in BALB/c mouse assessed as apoptotic cells in tumor tissue at 15 mg/kg, ip administered for 12 days by TUNEL assay; format: functional, organism-based; details: time 12.0 day
[3] = target: T1, Solute carrier family 2, facilitated glucose transporter member 1 (Homo sapiens) (UniProt P11166); assay: Binding affinity to GLUT1 (unknown origin) assessed as binding free energy
T1 sequence (whole entry): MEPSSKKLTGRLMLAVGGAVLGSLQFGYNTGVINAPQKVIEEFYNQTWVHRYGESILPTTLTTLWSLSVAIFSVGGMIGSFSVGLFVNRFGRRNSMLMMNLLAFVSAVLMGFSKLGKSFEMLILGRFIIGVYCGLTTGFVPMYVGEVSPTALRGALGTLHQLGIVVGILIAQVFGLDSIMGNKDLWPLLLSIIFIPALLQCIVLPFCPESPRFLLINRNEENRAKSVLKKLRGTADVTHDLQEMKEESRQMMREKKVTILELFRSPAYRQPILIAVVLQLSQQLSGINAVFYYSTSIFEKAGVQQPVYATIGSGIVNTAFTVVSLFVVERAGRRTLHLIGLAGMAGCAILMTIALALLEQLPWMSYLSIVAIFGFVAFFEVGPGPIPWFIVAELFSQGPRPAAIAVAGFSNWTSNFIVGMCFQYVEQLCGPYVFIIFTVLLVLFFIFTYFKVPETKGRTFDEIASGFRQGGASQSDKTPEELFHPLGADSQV

B16-F10 [4] = assay: Induction of cell membrane disruption in mouse B16-F10 cells assessed as shrunken morphology at 5 uM incubated for 24 hrs by scanning electron microscopy; format: functional, cell-based
B16-F10 [5] = assay: Anti-migration activity against mouse B16-F10 cells assessed as inhibition of spheroid migration at 2.5 uM after 3 days by crystal violet staining based assay; format: functional, cell-based; details: time 3.0 day
B16-F10 [6] = assay: Antitumor activity against mouse B16-F10 cells implanted in BALB/c mouse assessed as reduction in tumor volume at 15 mg/kg, ip administered for every 2 days; format: functional, organism-based; details: time 2.0 day
B16-F10 [7] = assay: Antiinvasive activity against mouse B16-F10 cells assessed as inhibition of cell migration at 0.75 microM incubated for 72 hrs by Matrigel based transwell invasion assay; format: functional
[8] = Stability in 10% fetal bovine serum measured after 24 hrs; format: ADME, cell-free, Bos taurus; details: cattle
[9] = target: T1, Solute carrier family 2, facilitated glucose transporter member 1 (Homo sapiens); assay: Binding affinity to GLUT1 (unknown origin) membrane assessed as free energy
B16-F10 [10] = assay: Cytotoxicity against mouse B16-F10 cells assessed as LDH release at 3.125 to 6.25 uM incubated for 24 hrs by LDH assay; format: functional, cell-based; details: dose 3.125-6.25 µM
B16-F10 [11] = assay: Antiinvasive activity against mouse B16-F10 cells assessed as inhibition of cell migration at 0.75 to 1.5 microM incubated for 72 hrs by transwell migration assay; format: functional, cell-based; details: dose 0.75-1.5 µM
[12] = Toxicity in BALB/c mouse implanted in mouse B16-F10 cells assessed as pathological changes in liver at 15 mg/kg, ip administered for days by H& E staining based assay; format: organism-based; details: in vivo
[13] = target: T1, Solute carrier family 2, facilitated glucose transporter member 1 (Homo sapiens); assay: Induction of GLUT1-mediated HEK293T cytotoxicity assessed as cell viability at 3.125 uM incubated for 24 hrs by CCK-8 assay
B16-F10 [14] = assay: Cytotoxicity against mouse B16-F10 cells assessed as cell viability after 24 hrs by CCK-8 assay; format: functional, cell-based; details: B16-F10, 24 h
[15] = Toxicity in KM mouse implanted in mouse B16-F10 cells assessed as body weight change at 10 mg/kg, iv administered for days; format: organism-based; details: in vivo
B16-F10 [16] = assay: Induction of cell membrane disruption in mouse B16-F10 cells assessed as membrane permeability at 5 uM incubated for 24 hrs by trypan blue staining based light microscopy; format: functional
[17] = target: T1, Solute carrier family 2, facilitated glucose transporter member 1 (Homo sapiens); assay: Induction of GLUT1-mediated human HeLa cell cytotoxicity assessed as cell viability at 12.5 uM incubated for 24 hrs by CCK-8 assay
[18] = Toxicity in BALB/c mouse implanted in mouse B16-F10 cells assessed as pathological changes in spleen at 15 mg/kg, ip administered for days by H& E staining based assay; format: organism-based; details: in vivo
B16-F10 [19] = assay: Antiproliferative activity against mouse B16-F10 cells assessed as inhibition of colony formation incubated for 12 days by crystal violet dye based assay; format: functional, cell-based; details: B16-F10, 288 h
[20] = Toxicity in BALB/c mouse implanted in mouse B16-F10 cells assessed as body weight change at 15 mg/kg, ip administered for days; format: organism-based; details: in vivo
B16-F10 [21] = assay: Antitumor activity against mouse B16-F10 cells implanted in KM mouse assessed as metastatic nodules in lungs at 10 mg/kg, iv administered for every 2 days measured after 9 days; format: functional, organism-based; details: time 9.0 day
B16-F10 [22] = assay: Induction of cell membrane disruption in mouse B16-F10 cells incubated for 24 hrs by SYTO 9/PI staining based fluorescence microscopy; format: functional
B16-F10 [23] = assay: Antimetastatic activity against mouse B16-F10 cells implanted in KM mouse assessed as reduction lung metastatic nodules at 200 microL of 10 mg/kg, iv administered once every 2 days by H and E staining method; format: functional, organism-based; details: time 2.0 day
[24] = target: T1, Solute carrier family 2, facilitated glucose transporter member 1 (Homo sapiens); assay: Induction of GLUT1-mediated human A549 cell cytotoxicity assessed as cell viability at 12.5 uM incubated for 24 hrs by CCK-8 assay
B16-F10 [25] = assay: Cytotoxicity against mouse B16-F10 cells assessed as inhibition of spheroid proliferation at 5 uM after 3 days by 3D-shperoid assay relative to control; format: functional, cell-based; details: time 3.0 day
B16-F10 [26] = assay: Cytotoxicity against GLUT1 - knocked down mouse B16-F10 cells assessed as cell viability after 24 hrs by CCK-8 assay; format: functional, cell-based
Homo sapiens = species: Homo sapiens; assay: Binding affinity to membrane (unknown origin) assessed as binding free energy
[27] = Toxicity in BALB/c mouse implanted in mouse B16-F10 cells assessed as pathological changes in heart at 15 mg/kg, ip administered for days by H& E staining based assay; format: organism-based; details: in vivo

CCCCCCCCCCCCCCCC(=O)N[C@@H](CCCNC(=N)N)C(=O)N[C@@H](Cc1c[nH]c2ccccc12)C(=O)N[C@@H](CCCCN)C(=O)N[C@H](C(=O)N[C@@H](Cc1ccccc1)C(=O)N[C@@H](CCCCN)C(=O)N[C@@H](CCCCN)C(=O)N[C@H](C(=O)N[C@@H](CCC(=O)O)C(=O)N[C@@H](CCCCN)C(=O)N[C@H](C(=O)NCC(=O)N[C@@H](CCC(N)=O)C(=O)N[C@@H](CC(N)=O)C(=O)N[C@H](C(=O)N[C@@H](CCCNC(=N)N)C(=O)N[C@@H](CC(=O)O)C(=O)NCC(=O)N[C@H](C(=O)N[C@H](C(=O)N[C@@H](CCCCN)C(=O)N[C@@H](C)C(=O)NCC(=O)N1CCC[C@H]1C(=O)N[C@@H](C)C(=O)N[C@H](C(=O)N[C@@H](C)C(=O)N[C@H](C(=O)N[C@H](C(=O)NCC(=O)N[C@@H](CCC(N)=O)C(=O)N[C@@H](C)C(=O)N[C@@H](C)C(=O)N[C@H](C(=O)N[C@H](C(N)=O)[C@@H](C)CC)[C@@H](C)O)C(C)C)C(C)C)C(C)C)C(C)C)[C@@H](C)CC)[C@@H](C)CC)C(C)C)[C@@H](C)CC)[C@@H](C)CC (HELM PEPTIDE1{[CCCCCCCCCCCCCCCC(=O)[*:2]].R.W.K.I.F.K.K.I.E.K.V.G.Q.N.I.R.D.G.I.V.K.A.G.P.A.V.A.V.V.G.Q.A.A.T.I.[am]}$$$$V2.0)
pIC50 (MCF7): > 5.10 | pIC50 (MX1): > 5.10 | pIC50 (MDA-MB-231): > 5.10

CCCCCCCCCCCC(=O)N[C@@H](CCCNC(=N)N)C(=O)NCC(=O)N[C@@H](Cc1c[nH]c2ccccc12)C(=O)N[C@@H](Cc1ccccc1)C(=O)N[C@@H](CCCNC(=N)N)C(=O)N[C@@H](C)C(=O)N[C@@H](CCSC)C(=O)N[C@@H](CCCNC(=N)N)C(=O)N[C@@H](CO)C(=O)N[C@H](C(=O)N[C@@H](C)C(=O)N[C@@H](CCCCNC(=O)CCCC(=O)NCCCO[C@@H]1O[C@H](CO)[C@@H](O)[C@H](O)[C@H]1O)C(=O)N[C@@H](Cc1ccccc1)C(=O)N[C@H](C(=O)N[C@@H](C)C(=O)N[C@@H](CCCNC(=N)N)C(=O)N[C@@H](CCC(=O)O)C(=O)N[C@@H](CCCNC(=N)N)C(=O)N[C@@H](CC(C)C)C(=O)N[C@@H](CCCNC(=N)N)C(=O)N[C@@H](CCC(=O)O)C(=O)N[C@@H](Cc1cnc[nH]1)C(=O)N[C@@H](CC(C)C)C(N)=O)[C@@H](C)CC)[C@@H](C)CC (Lauroyl-RGWFRAMRSIAK([Glutaryl-NH(CH2)3O(βDGlc)])FIARERLREHL-NH2)
Activity (B16-F10 [1]): Active | Activity (B16-F10 [2]): Active | deltaG [3]: -78 kcal/mol | Activity (B16-F10 [4]): Active | Activity (B16-F10 [5]): Active | Activity (B16-F10 [6]): Active | Activity (B16-F10 [7]): Active | Stability [8]: Stable | deltaG [9]: -79.6 kcal/mol | Activity (B16-F10 [10]): Active | Activity (B16-F10 [11]): Active | Activity [12]: Non-Toxic | Activity [13]: inactive | pIC50 (B16-F10 [14]): 5.72 | Activity [15]: Non-Toxic | Activity (B16-F10 [16]): Active | Activity [17]: Active | Activity [18]: Non-Toxic | pIC50 (B16-F10 [19]): 6.43 | Activity [20]: Non-Toxic | Activity (B16-F10 [21]): Active | Activity (B16-F10 [22]): Active | Activity (B16-F10 [23]): inactive | Activity [24]: Active | Activity (B16-F10 [25]): Active | Activity (B16-F10 [26]): inactive | deltaG (Homo sapiens): -76.6 kcal/mol | Activity [27]: Non-Toxic

H-RWKIFKKIEKVGQNIRDGIVKAGPAVAVVGQAATI-NH2
pIC50 (MCF7): > 5.10 | pIC50 (MX1): > 5.10 | pIC50 (MDA-MB-231): > 5.10

Reference: ChEMBL document CHEMBL5036332, “Glucose-Lipopeptide Conjugates Reveal the Role of Glucose Modification Position in Complexation and the Potential of Malignant Melanoma Therapy” (J Med Chem, 2021)
